The experiment addresses T1, HIV integrase (Human immunodeficiency virus type 1 group M subtype B, UniProt P12497, F1332H).
T1 construct: HIV integrase full length gene; made in house; host or cells: Escherichia coli BL21(DE3), plasmid pET21a-INH
The experiment is described as follows: Determination of enzyme (HIV integrase) inhibitory activity. In kind it is biochemical. The note with it: recombinant HIV integrase (F185H), strand transfer ELISA, absorbance at 450 nm. The source says: The following explains evaluation methods of the HIV integrase inhibitory activity of the compound of the present invention.
(i) Construction of Recombinant Integrase Gene Expression System
The 185th phenylalanine of HIV integrase full length gene (J. Virol., 67, 425–437 (1993)) was substituted by histidine and inserted into the restriction enzyme NdeI and XhoI sites of plasmid pET21a(+) (Novagen), whereby an integrase expression vector pET21a-INH was constructed.
(ii) Production and Purification of Integrase Protein
Escherichia coli recombinant BL21(DE3) transformed with plasmid pET21a-INH obtained in (i) was shake cultured at 37° C. in a liquid medium containing ampicillin. When the culture reached the logarithmic growth phase, isopropyl-β-D-thiogalactopyranoside was added to promote expression of integrase gene. The culture was continued for 3 hr to promote accumulation of the integrase protein. The recombinant E. coli was collected in pellets by centrifugal separation and preserved at −80° C.
The E. coli was suspended in Lysis buffer (20 mM HEPES (pH 7.5), 5 mM DTT, 10 mM CHAPS, 10% glycerol) containing 1M sodium chloride and subjected to repeat pressurization and depressurization for rupture, and centrifugal separation at 4° C., 40,000×g, 60 min to recover a water-soluble fraction (supernatant). This was diluted 10-fold with Lysis buffer free of sodium chloride, mixed with SP-Sepharose (Pharmacia Corporation) and stirred at 4° C. for 30 min to allow adsorption of integrase protein to the resin. The resin was washed with Lysis buffer containing 100 mM sodium chloride and the integrase protein was eluted with Lysis buffer containing 1M sodium chloride.
The eluted integrase protein solution was applied to a Superdex 75 (Pharmacia Corporation) column for gel filtration. The protein was eluted with Lysis buffer containing 1M sodium chloride.
The obtained fractions of the integrase protein were collected and preserved at −80° C.
(iii) Preparation of DNA Solution
The following DNA synthesized by Greiner was dissolved in TE buffer (10 mM Tris-hydrochloric acid (pH 8.0), 1 mM EDTA) and mixed with donor DNA, target DNA, and each complementary strand (+ and − strands) to 1 μM. The mixture was heated at 95° C. for 5 min, 80° C. for 10 min, 70° C. for 10 min, 60° C. for 10 min, 50° C. for 10 min and 40° C. for 10 min and preserved at 25° C. to give a double stranded DNA, which was used for the test.
Donor DNA (− strand having biotin attached to the 5′ terminal)
(iv) Determination of Enzyme (HIV Integrase) Inhibitory Activity
The donor DNA was diluted with TE buffer to 10 nM, of which 50 μl was added to each well of streptavidin-coated microtiter plate (Roche) and allowed to adsorb at 37° C. for 60 min. The DNA was washed with phosphate buffer (Dulbecco PBS, Sanko Junyaku Co., Ltd.) containing 0.1% Tween 20 and phosphate buffer. Then, a reaction mixture (70 μl) having the following composition, a test substance (10 μl) diluted with the reaction mixture and 100 μg/ml integrase protein (10 μl) were added to each well and reacted at 37° C. for 60 min.
Composition of the reaction mixture: 30 mM MOPS (3-morpholinopropanesulfonic acid), 5 mM magnesium chloride, 3 mM DTT (dithiothreitol), 0.1 mg/ml BSA (bovine serum albumin), 5% glycerol, 10% DMSO (dimethyl sulfoxide), 0.01% Tween 20.
Then, 50 nM target DNA (10 μl) was added, reacted at 37° C. for 10 min and washed with phosphate buffer containing 0.1% Tween 20 to stop the reaction.
Then, 100 mU/ml peroxidase labeled anti-digoxigenin antibody solution (Roche, 100 μl) was added, and the mixture was reacted at 30° C. for 60 min, followed by washing with phosphate buffer containing 0.1% Tween 20.
A peroxidase color solution (Bio Rad, 100 μl) was added and allowed to react at room temperature for 4 min. The color reaction was stopped by adding 1N sulfuric acid (100 μl). The absorbance at 450 nm was measured. […]
(In general: An ELISA detects its analyte on a solid surface through an enzyme-linked reagent.)

A value given as a limit tells only on which side of the number the result lay.

As to `COCC1CN(Cc2ccc(Cl)c(Cl)c2)C(=O)c2c(O)c(=O)ccn21` (stereo not drawn) [Example 29, 2-(3,4-dichlorobenzyl)-9-hydroxy-4-methoxymethyl-3,4-dihydro-2H-pyrido[1,2-a]pyrazine-1,8-dione], the IC50 (commonly the concentration that inhibits the measured activity by half) lay in the range of 10 to 100 nM. On to `CSCc1cc(=O)c(O)c2n1CCN(Cc1ccc(Cl)c(Cl)c1)C2=O` [Example 30, 2-(3,4-dichlorobenzyl)-9-hydroxy-6-methylsulfanylmethyl-3,4-dihydro-2H-pyrido[1,2-a]pyrazine-1,8-dione], for which the IC50 is 10 to 100 nM. As to `CS(=O)(=O)Cc1cc(=O)c(O)c2n1CCN(Cc1ccc(Cl)c(Cl)c1)C2=O` [Example 31, 2-(3,4-dichlorobenzyl)-9-hydroxy-6-methanesulfonylmethyl-3,4-dihydro-2H-pyrido[1,2-a]pyrazine-1,8-dione], the IC50 was in the range of 10 to 100 nM. The same measure for `CS(=O)(=O)CCC1CN(Cc2ccc(Cl)c(Cl)c2)C(=O)c2c(O)c(=O)ccn21` (stereo not drawn) [Example 32, 2-(3,4-dichlorobenzyl)-9-hydroxy-4-(2-methanesulfonylethyl)-3,4-dihydro-2H-pyrido[1,2-a]pyrazine-1,8-dione]: 10 to 100 nM; for `CSCCC1CN(Cc2ccc(Cl)c(Cl)c2)C(=O)c2c(O)c(=O)ccn21` (stereo not drawn) [Example 33, 2-(3,4-dichlorobenzyl)-9-hydroxy-4-(2-methylsulfanylethyl)-3,4-dihydro-2H-pyrido[1,2-a]pyrazine-1,8-dione]: 10 to 100 nM. As for `COC(=O)c1cc(=O)c(O)c2n1CCN(Cc1ccc(Cl)c(Cl)c1)C2=O` [Example 34, methyl 2-(3,4-dichlorobenzyl)-9-hydroxy-1,8-dioxo-1,3,4,8-tetrahydro-2H-pyrido[1,2-a]pyrazine-6-carboxylate], the figure is 10 to 100 nM; as for `CC(=O)c1cc(=O)c(O)c2n1CCN(Cc1ccc(Cl)c(Cl)c1)C2=O` [Example 35, 6-acetyl-2-(3,4-dichlorobenzyl)-9-hydroxy-3,4-dihydro-2H-pyrido[1,2-a]pyrazine-1,8-dione], 10 to 100 nM. For `CC(C)SCc1cc(=O)c(O)c2n1CCN(Cc1ccc(Cl)c(Cl)c1)C2=O` [Example 36, 2-(3,4-dichlorobenzyl)-9-hydroxy-6-isopropylsulfanylmethyl-3,4-dihydro-2H-pyrido[1,2-a]pyrazine-1,8-dione], the IC50 lay in the range of 10 to 100 nM. As to `CC(C)S(=O)(=O)Cc1cc(=O)c(O)c2n1CCN(Cc1ccc(Cl)c(Cl)c1)C2=O` [Example 37, 2-(3,4-dichlorobenzyl)-9-hydroxy-6-isopropylsulfonylmethyl-3,4-dihydro-2H-pyrido[1,2-a]pyrazine-1,8-dione], the IC50 fell in the range of 10 to 100 nM. As for `CC(C)OCc1cc(=O)c(O)c2n1CCN(Cc1ccc(Cl)c(Cl)c1)C2=O` [Example 38, 2-(3,4-dichlorobenzyl)-9-hydroxy-6-isopropoxymethyl-3,4-dihydro-2H-pyrido[1,2-a]pyrazine-1,8-dione], the IC50 was 10 to 100 nM. The same measure for `CC(C)COCc1cc(=O)c(O)c2n1CCN(Cc1ccc(Cl)c(Cl)c1)C2=O` [Example 39, 2-(3,4-dichlorobenzyl)-9-hydroxy-6-isobutoxymethyl-3,4-dihydro-2H-pyrido[1,2-a]pyrazine-1,8-dione]: 10 to 100 nM; for `CC(O)c1cc(=O)c(O)c2n1CCN(Cc1ccc(Cl)c(Cl)c1)C2=O` (stereo not drawn) [Example 40, 2-(3,4-dichlorobenzyl)-9-hydroxy-6-(1-hydroxyethyl)-3,4-dihydro-2H-pyrido[1,2-a]pyrazine-1,8-dione]: 10 to 100 nM. Turning to `O=C1c2c(O)c(=O)cc(COc3ccccc3)n2CCN1Cc1ccc(Cl)c(Cl)c1` [Example 41, 2-(3,4-dichlorobenzyl)-9-hydroxy-6-phenoxymethyl-3,4-dihydro-2H-pyrido[1,2-a]pyrazine-1,8-dione], the IC50 is 10 to 100 nM. In the case of `O=C1c2c(O)c(=O)ccn2CCN1Cc1ccc(F)cc1` [Example 42, 2-(4-fluorobenzyl)-9-hydroxy-3,4-dihydro-2H-pyrido[1,2-a]pyrazine-1,8-dione], the IC50 fell in the range of 10 to 100 nM.

Turning to `O=C1c2c(O)c(=O)ccn2CCN1Cc1cccc(Cl)c1` [Example 43, 2-(3-chlorobenzyl)-9-hydroxy-3,4-dihydro-2H-pyrido[1,2-a]pyrazine-1,8-dione], the IC50 was in the range of 10 to 100 nM. The same measure for `O=C1c2c(O)c(=O)ccn2CCN1Cc1ccccc1` [Example 44, 2-benzyl-9-hydroxy-3,4-dihydro-2H-pyrido[1,2-a]pyrazine-1,8-dione]: 100 to 1000 nM. `O=C1c2c(O)c(=O)ccn2CCN1Cc1ccc(Cl)cc1` [Example 45, 2-(4-chlorobenzyl)-9-hydroxy-3,4-dihydro-2H-pyrido[1,2-a]pyrazine-1,8-dione]: the IC50 was in the range of 10 to 100 nM. For `CC(C)c1cc(=O)c(O)c2n1CCN(Cc1ccc(Cl)c(Cl)c1)C2=O` [Example 46, 2-(3,4-dichlorobenzyl)-9-hydroxy-6-isopropyl-3,4-dihydro-2H-pyrido[1,2-a]pyrazine-1,8-dione], the IC50 lay within 10 to 100 nM. The same measure for `CC(C)C(=O)c1cc(=O)c(O)c2n1CCN(Cc1ccc(Cl)c(Cl)c1)C2=O` [Example 47, 2-(3,4-dichlorobenzyl)-9-hydroxy-6-isobutyryl-3,4-dihydro-2H-pyrido[1,2-a]pyrazine-1,8-dione]: below 10 nM. The same measure for `O=Cc1cc(=O)c(O)c2n1CCN(Cc1ccc(Cl)c(Cl)c1)C2=O` [Example 48, 2-(3,4-dichlorobenzyl)-9-hydroxy-1,8-dioxo-1,3,4,8-tetrahydro-2H-pyrido[1,2-a]pyrazine-6-carbaldehyde]: 10 to 100 nM.

`O=C1c2c(O)c(=O)cc(-c3ccccc3)n2CCN1Cc1ccc(Cl)c(Cl)c1` [Example 49, 2-(3,4-dichlorobenzyl)-9-hydroxy-6-phenyl-3,4-dihydro-2H-pyrido[1,2-a]pyrazine-1,8-dione]: the IC50 lay in the range of 10 to 100 nM. As to `O=C1c2c(O)c(=O)ccn2CCN1CCCc1ccccc1` [Example 50, 9-hydroxy-2-(3-phenylpropyl)-3,4-dihydro-2H-pyrido[1,2-a]pyrazine-1,8-dione], the IC50 lay within 10 to 100 nM. In the case of `O=C1c2c(O)c(=O)ccn2CCN1Cc1cccc(Cl)c1F` [Example 51, 2-(3-chloro-2-fluorobenzyl)-9-hydroxy-3,4-dihydro-2H-pyrido[1,2-a]pyrazine-1,8-dione], the IC50 fell in the range of 10 to 100 nM. The same measure for `CC(C)C(O)c1cc(=O)c(O)c2n1CCN(Cc1ccc(Cl)c(Cl)c1)C2=O` (stereo not drawn) [Example 53, 2-(3,4-dichlorobenzyl)-9-hydroxy-6-(1-hydroxy-2-methylpropyl)-3,4-dihydro-2H-pyrido[1,2-a]pyrazine-1,8-dione]: 10 to 100 nM; for `CC(C)Cc1cc(=O)c(O)c2n1CCN(Cc1ccc(Cl)c(Cl)c1)C2=O` [Example 54, 2-(3,4-dichlorobenzyl)-9-hydroxy-6-isobutyl-3,4-dihydro-2H-pyrido[1,2-a]pyrazine-1,8-dione]: 10 to 100 nM; for `NC(=O)c1cc(=O)c(O)c2n1CCN(Cc1ccc(Cl)c(Cl)c1)C2=O` [Example 55, 2-(3,4-dichlorobenzyl)-9-hydroxy-1,8-dioxo-1,3,4,8-tetrahydro-2H-pyrido[1,2-a]pyrazine-6-carboxamide]: 10 to 100 nM. As for `CNC(=O)c1cc(=O)c(O)c2n1CCN(Cc1ccc(Cl)c(Cl)c1)C2=O` [Example 56, N-methyl-2-(3,4-dichlorobenzyl)-9-hydroxy-1,8-dioxo-1,3,4,8-tetrahydro-2H-pyrido[1,2-a]pyrazine-6-carboxamide], the figure is 10 to 100 nM.

(Values after patent publication US7211572B2 (Japan Tobacco Inc., priority 2003, dated 2007).)
